Type in all cases: cell-based
The test system of experiment [1] is clinical multidrug-resistant and carbapenem-resistant Escherichia coli (CR-EC). Description: Survival rate (dot plate counting) of clinical multidrug-resistant and carbapenem-resistant Escherichia coli, 18 strains. Particulars: 10 hours. The method, then:
(§1) Single bacterial colonies were selected and inoculated into a 5 mL LB medium, cultivated at 37° C. (clinically multidrug-resistant and carbapenem-resistant or multidrug-resistant but carbapenem-sensitive Escherichia coli, clinically multidrug-resistant and carbapenem-resistant or multidrug-resistant but carbapenem-sensitive Klebsiella pneumoniae, clinically multidrug-resistant and carbapenem-resistant or multidrug-resistant but carbapenem-sensitive Pseudomonas aeruginosa, methicillin-resistant Staphylococcus aureus, and sensitive bacteria for each type of bacteria) or 30° C. […]
(§2) Thirty-six clinical multidrug-resistant Escherichia coli samples were prepared according to Embodiment 1, of which 18 were clinical multidrug-resistant and carbapenem-resistant Escherichia coli (abbreviated as CR-EC) and 18 were clinical multidrug-resistant but carbapenem-sensitive Escherichia coli (abbreviated as MDR-EC). […] The number of bacteria was counted. […]

For experiment [2], the system named is clinically multidrug-resistant and carbapenem-resistant Escherichia coli strain No. 28. Description: Live bacterial count / survival rate of CR Escherichia coli strain No. 28 (antibiotic concentration, sodium formate concentration, time, other antibiotics). The method, then: Single bacterial colonies were selected and inoculated into a 5 mL LB medium, cultivated at 37° C. (clinically multidrug-resistant and carbapenem-resistant or multidrug-resistant but carbapenem-sensitive Escherichia coli, clinically multidrug-resistant and carbapenem-resistant or multidrug-resistant but carbapenem-sensitive Klebsiella pneumoniae, clinically multidrug-resistant and carbapenem-resistant or multidrug-resistant but carbapenem-sensitive Pseudomonas aeruginosa, methicillin-resistant Staphylococcus aureus, and sensitive bacteria for each type of bacteria) or 30° C. (Edwardsiella tarda and Vibrio) at 200 rpm for 16-24 hours; an appropriate amount of a bacterial solution was taken for centrifugation at 8000 rpm for 5 min to collect bacterial cells, the supernatant was removed, and the bacterial cells were washed with an equal volume of 0.85% normal saline for 3 times and suspended in M9 medium (containing 10 mM proline, 2 mM MgSO4. 0.1 mM CaCl2)), and a base bacterial solution was cultured with M9 to an OD600 concentration of 0.6 and divided into 5 mL test tubes for later use.
Taking clinically multidrug-resistant and carbapenem-resistant Escherichia coli strain No. 28 as an example, adding different concentrations of sodium formate or different concentrations of antibiotics and under different treating times, the effect of improving the sensitivity of multidrug-resistant Escherichia coli to micronomicin was studied in depth.
To understand how sodium formate increased the sensitivity of bacteria to micronomicin at different antibiotic concentrations, on the basis of exogenous addition of 20 mM sodium formate, 30-480 μg/mL (several concentrations of) micronomicin was added to treat bacteria. No antibiotic addition was used as a control, and live bacterial counts were performed to compare the survival rates of bacteria with and without the addition of sodium formate at the same antibiotic concentration after 10 hours.
To investigate whether there was a gradient effect between the concentration of sodium formate and the bactericidal efficiency, as well as its optimal bactericidal concentration, different concentrations of sodium formate (0.625 mM-40 mM) were added on the basis of 60 μg/mL micronomicin addition for 10 hours, then live bacteria were counted, and the survival rate was calculated according to a formula as the following: the number of live bacteria with different concentrations of sodium formate addition/the number of live bacteria without sodium formate addition×100%.
Further research was conducted on adding 20 mM sodium formate and 60 μg/mL micronomicin and counting live bacteria at different time, and the relationship between its bactericidal efficiency and time was observed.
To investigate whether the addition of sodium formate is effective to antibiotics other than micronomicin in multidrug-resistant Escherichia coli, a clinical multidrug-resistant and carbapenem-resistant Escherichia coli sample No. 28 was prepared according to Embodiment 1, and 20 mM sodium formate and different kinds of antibiotics were added, respectively. After 10 hours of action, the number of live bacteria was counted, and the survival rate of the bacteria with different antibiotics was calculated after adding sodium formate.

In experiment [3] the test system is clinical multidrug-resistant but carbapenem-sensitive Escherichia coli (MDR-EC). Description: Survival rate (dot plate counting) of clinical multidrug-resistant but carbapenem-sensitive Escherichia coli, 18 strains. Particulars: 10 hours. As for the experimental part: as §1, §2

Experimental findings from patent US20250041254A1, “USE OF SODIUM FORMATE IN PREPARATION OF AN ANTI-INFECTIVE DRUG” (priority 2022, published 2025) are described below.

For `CNC[C@@H]1CC[C@@H](N)[C@@H](O[C@H]2[C@H](O)[C@@H](O[C@H]3OC[C@](C)(O)[C@H](NC)[C@H]3O)[C@H](N)C[C@@H]2N)O1` [micronomicin], the survival rate in experiment [1] (60 μg/mL micronomicin only, all 18 strains) is 67-97%; in experiment [2] (60 μg/mL micronomicin only, 6 hours) it was 87.96%; in experiment [2] (60 μg/mL micronomicin only, 16 hours), 72.72%; in experiment [2] (60 μg/mL micronomicin only, 24 hours), 34.64%; in experiment [2] (micronomicin 30 μg/mL without sodium formate, 10 hours), 100%; in experiment [2] (micronomicin 60 μg/mL without sodium formate, 10 hours) it was 77.37%. The survival rate in experiment [2] (micronomicin 120 μg/mL without sodium formate, 10 hours) was 35.87%; in experiment [2] (micronomicin 240 μg/mL without sodium formate, 10 hours), 29.77%; in experiment [2] (micronomicin 480 μg/mL without sodium formate, 10 hours), 29.01%; in experiment [3] (60 μg/mL micronomicin only, remaining 8 strains), “less than 60%”. Besides, the “number of live bacteria” value in experiment [2] (60 μg/mL micronomicin only, 1-4 hours) is recorded as “remained basically unchanged”. The bacterial survival rate in experiment [2] (sodium formate gradient experiment, control group: 60 μg/mL micronomicin without sodium formate, 10 hours) is given as 72.3%.

Turning to `O=C[O-].[Na+]` [sodium formate], the “killing effect on bacteria” value in experiment [1] (20 mM sodium formate alone) and in experiment [3] (20 mM sodium formate alone) was “no killing effect” throughout.
